# Biological target: T1, human FPRL1 (Homo sapiens, UniProt P25090)
# T1 construct: expressed in transfected cells; host or cells: HEK293 (JCRB9068, NIBIO), transient transfection with pCMV-script vectors using Lipofectamine 2000
# T1 sequence (P25090 1-351): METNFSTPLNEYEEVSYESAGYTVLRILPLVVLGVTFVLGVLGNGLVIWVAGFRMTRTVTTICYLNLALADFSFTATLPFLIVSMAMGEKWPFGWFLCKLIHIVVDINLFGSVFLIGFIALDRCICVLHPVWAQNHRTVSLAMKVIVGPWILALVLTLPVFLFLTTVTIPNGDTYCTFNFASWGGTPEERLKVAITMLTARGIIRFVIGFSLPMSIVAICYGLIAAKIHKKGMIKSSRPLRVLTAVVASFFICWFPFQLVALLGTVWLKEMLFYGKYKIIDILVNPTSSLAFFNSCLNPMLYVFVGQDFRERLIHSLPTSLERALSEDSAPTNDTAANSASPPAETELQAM
# Assay: Measurement test of agonist activity on human FPRL1 (test of calcium mobilization in cell, HEK293 with human FPRL1 and Gα15 expression vectors)
# Assay type: cell-based
# Settings: calcium mobilization in HEK293 cells with human FPRL1 and Gα15 expression vectors
# Procedure, shortened: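 HEK293 transiently co-transfected with human FPRL1 and Gα15, plated 24 h before assay, loaded with Fluo-4 NW dye plus probenecid. Compounds in eight 10-fold dilutions (DMSO stocks 10^−2 to 10^−9 M, then diluted 100-fold in assay buffer); calcium mobilization read on Flexstation for EC50.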
row,Compound,EC50 [nM]
1,"C#Cc1ccc(NC(=O)N[C@@H]2C(=O)NC[C@H]2c2c(F)cc(OC)cc2F)cc1 (single isomer, unassigned) [EXAMPLE 28-4, (−)-1-[(3S*,4R*)-4-(2,6-Difluoro-4-methoxyphenyl)-2-oxopyrrolidin-3-yl]-3-(4-ethynylphenyl) urea]",1.64
2,"COc1cc(F)c([C@@H]2CN(C)C(=O)[C@H]2NC(=O)Nc2ccc(F)cc2)c(F)c1 (relative stereo) [Example 24-1, (−)-1-[(3S*,4R*)-4-(2,6-Difluoro-4-methoxyphenyl)-1-methyl-2-oxopyrrolidin-3-yl]-3-(4-fluorophenyl)urea]",0.09
3,"O=C(Nc1ccc(F)cc1)N[C@@H]1C(=O)NC[C@H]1c1c(F)cc(OC(F)F)cc1F (relative stereo) [Example 1-74, 1-{(3S*,4R*)-4-[4-(difluoromethoxy)-2,6-difluorophenyl]-2-oxopyrrolidin-3-yl}-3-(4-fluorophenyl)urea]",1.8
4,"COc1cc(F)c([C@@H]2CNC(=O)[C@H]2NC(=O)Nc2cccc(F)c2)c(F)c1 (relative stereo) [Example 7-8, (−)-1-[(3S*,4R*)-4-(2,6-difluoro-4-methoxyphenyl)-2-oxopyrrolidin-3-yl]-3-(3-fluorophenyl)urea]",0.95
5,"CO/N=C1\NC[C@@H](c2ccc(OC)cc2F)[C@@H]1NC(=O)Nc1ccc(F)cc1 (single isomer, unassigned) [EXAMPLE 32-2, (−)-1-[(3S*,4R*,Z)-4-(2-fluoro-4-methoxyphenyl)-2-(methoxyimino)pyrrolidin-3-yl]-3-(4-fluorophenyl)urea]",0.03
6,"COc1cc(F)c([C@@H]2CN=C(Nc3ccn(C)n3)[C@H]2NC(=O)Nc2ccc(F)cc2)c(F)c1 (single isomer, unassigned) [EXAMPLE 32-16, (−)-1-{(3R*,4S*)-3-(2,6-difluoro-4-methoxyphenyl)-5-[(1-methyl-1H-pyrazol-3-yl)amino]-3,4-dihydro-2H-pyrrol-4-yl}-3-(4-fluorophenyl)urea]",0.54
7,"COc1cc(F)c([C@@H]2CNC(=O)[C@H]2NC(=O)Nc2ccc(Oc3ccccc3)cc2)c(F)c1 (relative stereo) [Example 7-7, (−)-1-[(3S*,4R*)-4-(2,6-difluoro-4-methoxyphenyl)-2-oxopyrrolidin-3-yl]-3-(4-phenoxyphenyl)urea]",1.56
8,"COc1cc(F)c([C@@H]2CN(CS(N)(=O)=O)C(=O)[C@H]2NC(=O)Nc2ccc(F)cc2)c(F)c1 (relative stereo) [Example 24-15, (−)-{(3S*,4R*)-4-(2,6-difluoro-4-methoxyphenyl)-3-[3-(4-fluorophenyl)ureido]-2-oxopyrrolidin-1-yl}methanesulfonamide]",0.03
9,"COc1ccc([C@@H]2CN(CCO)C(=O)[C@H]2NC(=O)Nc2ccc(Cl)cc2)cc1 (single isomer, unassigned) [Example 15-1A, (−)-trans-1-(4-Chlorophenyl)-3-[1-(2-hydroxyethyl)-4-(4-methoxyphenyl)-2-oxopyrrolidin-3-yl]urea]",0.01
10,"COc1cc(F)c([C@@H]2CN(Cc3ccccc3)C(=O)[C@H]2NC(=O)Nc2ccc(F)cc2)c(F)c1 (relative stereo) [Example 24-12, (−)-1-[(3S*,4R*)-1-benzyl-4-(2,6-difluoro-4-methoxyphenyl)-2-oxopyrrolidin-3-yl]-3-(4-fluorophenyl)urea]",2.2
11,"COc1cc(F)c([C@@H]2CN/C(=N\OCCO)[C@H]2NC(=O)Nc2cc3ccccc3s2)c(F)c1 (single isomer, unassigned) [EXAMPLE 32-15, (−)-1-(benzo[b]thiophen-2-yl)-3-{(3S*,4R*,Z)-4-(2,6-difluoro-4-methoxyphenyl)-2-[(2-hydroxyethoxy)imino]pyrrolidin-3-yl}urea]",0.27
12,"C/N=C1\NC[C@@H](c2c(F)cc(OC)cc2F)[C@@H]1NC(=O)Nc1ccc(F)cc1 (relative stereo) [EXAMPLE 32-6, 1-[(3S*,4R*,Z)-4-(2,6-difluoro-4-methoxyphenyl)-2-(methylimino)pyrrolidin-3-yl]-3-(4-fluorophenyl)urea]",0.37
13,"COc1ccc(NC(=O)N[C@@H]2C(=O)NC[C@H]2c2c(F)cc(OC)cc2F)cc1 (single isomer, unassigned) [EXAMPLE 1-24, (−)-1-[(3S*,4R*)-4-(2,6-difluoro-4-methoxyphenyl)-2-oxopyrrolidin-3-yl]-3-(4-methoxyphenyl)urea]",3.2
14,"COc1cc(F)c([C@@H]2CNC(=O)[C@H]2NC(=O)Nc2ccc(OC(F)(F)F)cc2)c(F)c1 (relative stereo) [Example 7-1, (−)-1-[(3S*,4R*)-4-(2,6-Difluoro-4-methoxyphenyl)-2-oxopyrrolidin-3-yl]-3-[4-(trifluoromethoxy)phenyl]urea]",1.09
15,"COc1cc(F)c([C@@H]2CNC(=O)[C@H]2NC(=O)Nc2ccc(C(F)(F)F)cc2)c(F)c1 (relative stereo) [Example 1-63, (−)-1-[(3S*,4R*)-4-(2,6-difluoro-4-methoxyphenyl)-2-oxopyrrolidin-3-yl]-3-[4-(trifluoromethyl)phenyl]urea]",0.92
16,"NC(=O)CN1C[C@@H](c2cc3c(cc2F)OCC3)[C@H](NC(=O)Nc2ccc(F)cc2)C1=O (relative stereo) [Example 17-3, (−)-2-{(3S*,4R*)-4-(6-fluoro-2,3-dihydrobenzofuran-5-yl)-3-[3-(4-fluorophenyl)ureido]-2-oxopyrrolidin-1-yl}acetamide]",0.29
17,"COc1ccc([C@@H]2CNC(=O)[C@H]2NC(=O)Nc2ccc(F)cc2)c(Cl)c1 (relative stereo) [EXAMPLE 1-10, 1-[(3S*,4R*)-4-(2-chloro-4-methoxyphenyl)-2-oxopyrrolidin-3-yl]-3-(4-fluorophenyl)urea]",3.98
18,"COc1ccc(C2CNC(=O)C2NC(=O)Nc2ccc(Cl)cc2)cc1 (single isomer, unassigned; (+)) [Example 12-12, (+)-1-(4-chlorophenyl)-3-[4-(4-methoxyphenyl)-2-oxopyrrolidin-3-yl]urea]",0.9
19,"CO/N=C1\NC[C@@H](c2c(F)cc(OC)cc2F)[C@@H]1NC(=O)Nc1ccc(C)cc1 (single isomer, unassigned) [EXAMPLE 32-8, (−)-1-[(3S*,4R*,Z)-4-(2,6-difluoro-4-methoxyphenyl)-2-(methoxyimino)pyrrolidin-3-yl]-3-(p-tolyl)urea]",0.44
20,"COc1cc(F)c([C@@H]2CN(CCO)C(=O)[C@H]2NC(=O)Nc2ccccc2)c(F)c1 (relative stereo) [Example 24-6, (−)-1-[(3S*,4R*)-4-(2,6-difluoro-4-methoxyphenyl)-1-(2-hydroxyethyl)-2-oxopyrrolidin-3-yl]-3-phenylurea]",0.4
21,"COc1ccc([C@@H]2CN(C)C(=O)[C@H]2NC(=O)Nc2ccc(Cl)cc2)cc1 (single isomer, unassigned) [EXAMPLE 1-6, (−)-1-(4-chlorophenyl)-3-[(3S*,4R*)-4-(4-methoxyphenyl)-1-methyl-2-oxopyrrolidin-3-yl]urea]",0.2
22,"COc1cc(F)c([C@@H]2CN(Cc3ncc(C)o3)C(=O)[C@H]2NC(=O)Nc2ccc(F)cc2)c(F)c1 (single isomer, unassigned) [EXAMPLE 24-17, (−)-1-{(3S*,4R*)-4-(2,6-difluoro-4-methoxyphenyl)-1-[(5-methyloxazol-2-yl)methyl]-2-oxopyrrolidin-3-yl}-3-(4-fluorophenyl)urea]",0.02
23,"COc1cc(F)c([C@@H]2CN=C(Nc3ccccc3)[C@H]2NC(=O)Nc2ccc(F)cc2)c(F)c1 (relative stereo) [EXAMPLE 32-18, 1-[(3R*,4S*)-3-(2,6-difluoro-4-methoxyphenyl)-5-(phenylamino)-3,4-dihydro-2H-pyrrol-4-yl]-3-(4-fluorophenyl)urea]",0.54
24,"COc1cc(F)c([C@@H]2CNC(=O)[C@H]2NC(=O)Nc2ccc(Cl)s2)c(F)c1 (relative stereo) [Example 8-1, (−)-1-(5-Chlorothiophen-2-yl)-3-[(3S*,4R*)-4-(2,6-difluoro-4-methoxyphenyl)-2-oxopyrrolidin-3-yl]urea]",0.29
25,"COc1ccc([C@@H]2CN/C(=N\O)[C@H]2NC(=O)Nc2ccc(F)cc2)cc1 (single isomer, unassigned) [EXAMPLE 33-1, (−)-1-(4-Fluorophenyl)-3-[(3S*,4R*,Z)-2-(2-hydroxyimino)-4-(4-methoxyphenyl)pyrrolidin-3-yl]urea]",1.14
26,"COc1ccc([C@@H]2CNC(=O)[C@H]2NC(=O)Nc2ccc(C#N)cc2)cc1 (single isomer, unassigned) [EXAMPLE 1-5, (−)-1-(4-cyanophenyl)-3-[(3S*,4R*)-4-(4-methoxyphenyl)-2-oxopyrrolidin-3-yl]urea]",2.88
27,"COc1cc(F)c([C@@H]2CNC(=O)[C@H]2NC(=O)Nc2cccc(C#N)c2)c(F)c1 (relative stereo) [Example 7-12, (−)-1-(3-cyanophenyl)-3-[(3S*,4R*)-4-(2,6-difluoro-4-methoxyphenyl)-2-oxopyrrolidin-3-yl]urea]",3.9
28,"O=C(Nc1cc2ccccc2s1)N[C@@H]1C(=O)NC[C@H]1c1cc2c(cc1F)OCC2 (relative stereo) [Example 1-85, (−)-1-(benzo[b]thiophen-2-yl)-3-[(3S*,4R*)-4-(6-fluoro-2,3-dihydrobenzofuran-5-yl)-2-oxopyrrolidin-3-yl]urea]",3.5
29,"O=C(Nc1ccc(Cl)cc1)N[C@H]1C(=O)NC[C@@H]1c1ccccc1 (relative stereo) [Example 1-43, (+)-1-(4-chlorophenyl)-3-[(3R*,4S*)-2-oxo-4-phenylpyrrolidin-3-yl]urea]",5.13
